AC50 data for 88 molecules are collected here from PubChem BioAssay AID463199 (Broad Institute, 2010).

Activity calls are given as the source filed them.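 Rule for the calls: active = AC50, the dose giving half-maximal effect, exceeds a fixed cutoff for a compound that rescues yeast growth under heat; inactive = the rest, inconclusive results apart.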 A value given as a limit tells only on which side of the number the result lay.

The assay relates to S. cerevisiae Burl-1 ts mutant growth, BacTiter-Glo, 38.5C 24 h. Put plainly: growth induction of Burl-1 ts yeast mutant, dose response, counter-screen for SUMOylation pathway inhibitor project, whole organism, S. cerevisiae, luminescence (AID 463199). (A counterscreen serves to expose hits that act by an unwanted route or on another target.)
One may read the AC50 as the midpoint of the concentration-response curve, whichever way the signal moves. For `CSc1nnc2c3cc(C)ccc3n(Cc3ccccc3)c2n1`, the AC50 was > 42 µM (inactive).

With `COC(=O)c1sccc1NC(=S)N1CCCCC1`, the AC50 is > 42 µM (inactive).

As for `O=C1c2ccccc2NC(c2ccccc2O)N1O` (stereo not drawn), the AC50 was > 42 µM (inactive).

Turning to `CC1CC(C)(C)N(C(=O)CN2C(=O)CCC2=O)c2ccccc21` (stereo not drawn), the AC50 is > 42 µM (inactive).

As to `COc1ccc(N(C(=O)c2ccncc2)S(=O)(=O)c2ccc(F)cc2)cc1`, the AC50 is > 42 µM (inactive).

Consider `Cc1nc(N)c(Cc2ccccc2F)c(N)n1`, for which the AC50 was > 42 µM (inactive).

Take `CC(C)n1c(O)c(N=Nc2ccccn2)c2ccccc21`: the AC50 was > 42 µM (inactive).

As to `COc1cccc(N=Nc2c(=O)[nH]n3c(=O)cc(C)[nH]c23)c1`, the AC50 was > 42 µM (inactive).

`CC(C)(C)C1c2[nH]c3ccccc3c2CCN1Cc1cccc(OCCO)c1` (stereo not drawn): the AC50 is > 42 µM (inactive).

Turning to `Cc1c(C(=O)NC(C)c2ccc(-n3ccnc3)cc2)cccc1[N+](=O)[O-]` (stereo not drawn), the AC50 is > 42 µM (inactive).

`CCOc1ccc(C(C(=O)NC2CCCC2)N(C(=O)c2snc(C(N)=O)c2N)C2CCCC2)cc1` (stereo not drawn): the AC50 is > 42 µM (inactive).

Take `Cc1ccc(N2C(=O)c3cccc4c(N5CCN(C)CC5)ccc(c34)C2=O)c2cccnc12`: the AC50 was > 42 µM (inactive).

For the molecule `Cn1c(=O)nc2n(Cc3ccccc3)c3ccccc3cc-2c1=O`, the AC50 is > 42 µM (inactive).

On to `CC(NC(=O)C1CCCCC1)C(=O)NC1=NCCS1` (stereo not drawn), for which the AC50 was > 42 µM (inactive).

With `O=[N+]([O-])c1nn(-c2ccc(Cl)cc2)n(O)c1=NCc1ccccc1Cl`, the AC50 is > 42 µM (inactive).

On to `CCCCc1nnc(NC(=O)CSc2nc(O)c(-c3ccccc3)c(=O)[nH]2)s1`, for which the AC50 was > 42 µM (inactive).

Turning to `CC1=C(C#N)S(=O)(=O)C(C#N)C(c2ccccc2)C1` (stereo not drawn), the AC50 was > 42 µM (inactive).

On to `[N-]=[N+]=NCCN1CCC(O)CCC1=O` (stereo not drawn), for which the AC50 was > 42 µM (inactive).

For the molecule `Cc1c(OC(C)C(=O)N2C[C@H]3C[C@@H](C2)c2cccc(=O)n2C3)ccc2c3c(c(=O)oc12)CCCC3` (stereo partly drawn), the AC50 is > 42 µM (inactive).

For `CCOc1ncccc1C(=O)OCC(=O)N(CC)c1ccccc1`, the AC50 is > 42 µM (inactive).

Consider `Cc1cc(NC(=O)CSc2ncn(-c3ccccc3)n2)no1`, for which the AC50 is > 42 µM (inactive).

For `COc1ccccc1NC(=O)Nc1ccc(Cl)c(S(=O)(=O)Nc2ccccc2OC)c1`, the AC50 was > 42 µM (inactive).

In the case of `O=C(Nc1cccc(O)c1)C(Cc1ccccc1)N1C(=O)c2cccc3cccc(c23)C1=O` (stereo not drawn), the AC50 is > 42 µM (inactive).

Turning to `CC(C)C/C(=N/O)c1c[nH]c2ccccc12`, the AC50 is > 42 µM (inactive).

Consider `CNC(=O)c1ccccc1S(=O)c1ccccc1COC(C)=O` (stereo not drawn), for which the AC50 was > 42 µM (inactive).

`COc1ccc2cc(C(=O)Nc3ccc(Cl)cc3)sc(=O)c2c1OC`: the AC50 was > 42 µM (inactive).

For the molecule `Cc1c(C(=O)N2CCOCC2)c(S(=O)(=O)Nc2cccc(Br)c2)c(C)n1C`, the AC50 is > 42 µM (inactive).

As to `Cc1cc(S(=O)(=O)NCC(C)C)ccc1OCC(=O)N1CCOCC1`, the AC50 is > 42 µM (inactive).

Turning to `Cc1ccc(-n2c(C)cc(/C=N/NC(=O)c3ccncc3)c2C)cc1C`, the AC50 is > 42 µM (inactive).

Take `CCNC(=S)NNC(=O)c1ccc(=O)n(Cc2ccccc2)c1`: the AC50 is > 42 µM (inactive).

`Cc1c(C(=O)NC(=S)Nc2ccccc2N2CCCC2)cccc1[N+](=O)[O-]`: the AC50 is > 42 µM (inactive).

Turning to `O=C(/C=C/c1ccc(Cl)cc1Cl)Nc1cccc(S(=O)(=O)NC2=NCCCCC2)c1`, the AC50 is > 42 µM (inactive).

On to `CC1(C)C2CC[C@]3(C)C(CC=C4[C@@H]5C[C@@](C)(CO)[C@@H](O)C[C@]56C[C@@H](OC6=O)[C@]43C)[C@@]2(C)CC[C@@H]1O` (stereo partly drawn), for which the AC50 was > 42 µM (inactive).

Take `COc1ccc(-c2nc(NC(=O)CCNC(=O)c3ccco3)sc2C)cc1`: the AC50 is > 42 µM (inactive).

As for `Cc1cccc(C(=O)NCC(=O)N2CCN(c3ccc(Cl)cc3)CC2)c1`, the AC50 is > 42 µM (inactive).

`COC(=O)c1cn(C(=O)c2cccc3ccccc23)c2ccccc12`: the AC50 was > 42 µM (inactive).

Consider `Cc1ccc(NC2CC(=O)N(c3ccc(N4CCCCC4)cc3)C2=O)cc1` (stereo not drawn), for which the AC50 is > 21 µM (inactive).

In the case of `COCCCNCC(O)COc1cccc2[nH]c(C)cc12` (stereo not drawn), the AC50 was > 42 µM (inactive).

`COc1cc2c(=O)n(CCC(=O)NCC3CCCO3)c(=O)n(CC(=O)Nc3ccccc3C)c2cc1OC` (stereo not drawn): the AC50 was > 42 µM (inactive).

As to `COc1ccc(N2CCN(C(=O)Cn3nnc(-c4ccc(OC)c(OC)c4)n3)CC2)cc1`, the AC50 is > 42 µM (inactive).

For `O=c1cc(COc2ncnc3ccccc23)nc2sccn12`, the AC50 was > 42 µM (inactive).

Regarding `COc1ccc(-c2csc(NC(=O)CS(=O)(=O)c3ccc(F)cc3)n2)cc1OC`, the AC50 is > 42 µM (inactive).

With `O=C(CCN1C(=O)S/C(=C/c2ccccc2)C1=O)Nc1ccc(O)c(C(=O)O)c1`, the AC50 was > 42 µM (inactive).

As for `CCC1CCCCN1C(=O)CSc1nc2c([nH]c3ccccc32)c(=O)n1C` (stereo not drawn), the AC50 was > 42 µM (inactive).

Take `COc1ccc(C(=O)OCC(=O)c2ccccc2)cc1S(=O)(=O)N1CCOCC1`: the AC50 was > 42 µM (inactive).

Regarding `O=C(NCc1ccco1)c1ccc(Br)c(S(=O)(=O)N2CCCCC2)c1`, the AC50 is > 42 µM (inactive).

For the molecule `CCOc1ccc(-c2nnc(SCC(=O)N3CCCC3)o2)cc1`, the AC50 was > 42 µM (inactive).

For the molecule `C=CCOc1ccccc1CN1CCCC(CCC(=O)N(C)CCc2ccccn2)C1` (stereo not drawn), the AC50 is > 21 µM (inactive).

In the case of `O=Cc1ccccc1OCCN1CCCC1=O`, the AC50 was > 42 µM (inactive).

For `CCCCCCCCc1nc(SCC(C)=O)n[nH]1`, the AC50 was > 42 µM (inactive).

On to `COc1cc(/C=C(\NC(=O)c2ccccc2)C(=O)Nc2nccs2)ccc1OC(C)=O`, for which the AC50 was > 42 µM (inactive).

As to `CSc1ccccc1-n1nnnc1SCC(=O)Nc1ccccc1C`, the AC50 was > 42 µM (inactive).

For the molecule `O=C(OCCCCOC(=O)c1ccccc1)c1ccccc1`, the AC50 is > 42 µM (inactive).

In the case of `CCOC(=O)c1cnc2c(OC)cccc2c1N1CCN(c2ccccc2OC)CC1`, the AC50 was > 42 µM (inactive).

In the case of `Cc1ccc2nc3c(cc(C(=O)NCCN4CCOCC4)c(=N)n3CCCN3CCOCC3)c(=O)n2c1`, the AC50 was > 42 µM (inactive).

For the molecule `Cc1cccc(CS(=O)(=O)Cc2ccc(C(=O)NCC3CCCO3)o2)c1` (stereo not drawn), the AC50 is > 42 µM (inactive).

On to `CC1CCCC(N2C(=O)NC(NC(=O)c3ccco3)(C(F)(F)F)C2=O)C1C` (stereo not drawn), for which the AC50 is > 42 µM (inactive).

Regarding `NN1C(=O)NC(c2ccccc2)(c2ccccc2)C1=O`, the AC50 was > 42 µM (inactive).

`COCCNC(=O)NC(=O)CSc1nc(C)c(C)c(C)n1`: the AC50 was > 42 µM (inactive).

On to `Cc1ccc(C)c(NC(NC(=O)c2ccccn2)C(Cl)(Cl)Cl)c1` (stereo not drawn), for which the AC50 is > 42 µM (inactive).

Take `COc1cc2nc(CSc3ncn[nH]3)[nH]c(=O)c2cc1OC`: the AC50 is > 42 µM (inactive).

Turning to `CCN(C(=S)NCCOC)c1cccc2ccccc12`, the AC50 is > 42 µM (inactive).

In the case of `CCCN1CCN(CCCNC(=O)CCn2nc(-c3ccccc3)ccc2=O)CC1`, the AC50 was > 42 µM (inactive).

Regarding `O=C(Nc1ccccc1F)C1CCN(C(=O)Cc2ccccc2)CC1`, the AC50 was > 42 µM (inactive).

With `CCCc1cc(=S)n2c([nH]c3ccccc32)c1C#N`, the AC50 is > 42 µM (inactive).

For the molecule `COc1ccc2c(c1)[C@H]1[C@H](CO2)[C@H](c2ccccc2)[C@]2(C)C(=O)Nc3cc(C)ccc3C(=O)N12`, the AC50 is > 42 µM (inactive).

With `CCc1ccc(-c2nc(SCC(=O)N3CCOCC3)n[nH]2)cc1`, the AC50 was > 42 µM (inactive).

Consider `CCOC(=O)c1sc(NC(=O)CSc2n[nH]c(-c3ccc(Cl)cc3Cl)n2)c(C#N)c1C`, for which the AC50 was > 42 µM (inactive).

For the molecule `CN(C)C1(c2nnnn2-c2ccc(Cl)cc2)CCCCC1`, the AC50 was > 42 µM (inactive).

Take `CN(C)CCOC(=O)CCc1ccccc1`: the AC50 is > 42 µM (inactive).

With `COc1cc(CN2CCNC(=O)C2CC(=O)NCCc2ncccc2C)cc(OC)c1` (stereo not drawn), the AC50 is > 42 µM (inactive).

As to `Cc1ccc(NC(=O)N[C@H](C(=O)O)C(C)C)c(C)c1`, the AC50 is > 42 µM (inactive).

Turning to `COc1ccc(NC(=O)c2ccc(COc3ccccc3OC)o2)cc1OC`, the AC50 is > 42 µM (inactive).

For the molecule `Cc1ccc(C)c(NC(=O)COC(=O)c2ccc3c(c2)OCO3)c1`, the AC50 is > 42 µM (inactive).

As for `COc1ccc(S(=O)(=O)n2nc(-c3ccc(Cl)cc3)cc2N)cc1OC`, the AC50 was > 42 µM (inactive).

As for `CCOC(=O)N1CCC(Nc2nc3ccccc3n3nnnc23)CC1`, the AC50 was > 42 µM (inactive).

Take `COc1cc(SC)ccc1C(=O)Nc1cc(C)c(OCC(=O)N2CCOCC2)c(C)c1`: the AC50 was > 42 µM (inactive).

Consider `CCOC(=O)NC1(Nc2ccc(C)cc2)Oc2ccccc2O1`, for which the AC50 is > 42 µM (inactive).

As to `O=S(=O)(NCc1ccco1)c1ccc2ccccc2c1`, the AC50 is > 42 µM (inactive).

In the case of `O=C(c1ccc(-c2ccccc2)cc1)C1CCCN(Cc2ccncc2)C1` (stereo not drawn), the AC50 was > 42 µM (inactive).

`CC1(C)C(C=C(Cl)Cl)C1C(=O)OCc1cccc(Oc2ccccc2)c1` (stereo not drawn): the AC50 was > 42 µM (inactive).

As to `CCN(CC(=O)N1CCCCCC1)S(=O)(=O)c1ccc(Cl)cc1`, the AC50 is > 42 µM (inactive).

As to `CC(=O)Nc1ccc(C(=O)NCCCOC(C)C)cc1`, the AC50 is > 42 µM (inactive).

Consider `COCC(=O)NNC(=O)c1ccccc1OC`, for which the AC50 was > 42 µM (inactive).

`CC1CCC(C(C)C)C(OC(=O)COC(=O)c2cccn2C)C1` (stereo not drawn): the AC50 was > 42 µM (inactive).

With `CN(c1ccccc1)S(=O)(=O)c1ccc(C(=O)NCC2CCCO2)cc1` (stereo not drawn), the AC50 is > 21 µM (inactive).

Take `Cc1ccc(-c2csc(NC(=O)CSc3nc(C)cs3)n2)cc1`: the AC50 was > 42 µM (inactive).

Take `O=C(COC(=O)Cc1ccsc1)NC1CCCCCC1`: the AC50 was > 42 µM (inactive).
